In general, IC50 refers to the concentration at which inhibition is half-maximal.

The structures appear in SMILES notation.

For series [1], the system named is mouse model of ragweed pollen-induced allergic conjunctivitis. The series is described as follows: Mouse model of ragweed pollen-induced allergic conjunctivitis. In kind it is in vivo, Balb/c mice. To be noted: for Clinical symptom score: twice a day for 14 days, Day 14 within 30 minutes after final challenge. On the procedure:
SPF-grade Balb/c mice (half male and half female, 6-8 weeks old) were used as experimental animals. On Day 0 and Day 6, ragweed pollen footpad injection was injected subcutaneously into the footpads of mice for sensitization (65 μl per mouse). On Days 10-14, in the model group, eye drop of ragweed pollen was applied to both eyes of the mice (10 μl per mouse) once a day. The eye drops were applied for 5 consecutive days to trigger local allergic conjunctivitis (Wu B, et al., Frontiers in Immunology, 2021, 12:4754). […] On Day 14, within 30 minutes after the final challenge, the ocular clinical symptoms of the mice were observed under a microscope and scored according to the scoring criteria reported by Magone et al. (MerayoLloves J, et al., J Allergy Clin Immunol (1996) 97(5):1129-40; Magone M T, et al., Clin Immunol Immunopathol (1998) 87(1):75-84), the allergic response of the eyes were observed, including 4 indexes: conjunctival edema, conjunctival congestion, eyelid congestion and edema, and tearing. The scores were recorded as 0-3 points according to the severity (including none, mild, moderate and severe). The left eye of the mouse was taken with the eyelid (keeping the conjunctiva intact), fixed with polyformaldehyde, sectioned in paraffin, Hematoxylin-Eosin stained (HE stained), and toluidine blue stained (for detection of mast cells). Photographs were taken to analyze the inflammatory cell infiltration of the conjunctival tissue, and observe whether the mast cells in the conjunctiva aggregated and whether a phenomenon of degranulation occurred. The expression of allergic indicators IL-4 and IgE in the conjunctival tissue was detected by immunohistochemistry.
The mouse eye, including the eyelids (with intact conjunctiva), was sectioned after deparaffinization, and subjected to antigen retrieval and serum blocking.
Diluted IL-4 or IgE antibodies were added and incubated overnight. After incubation with secondary antibodies, DAB staining was performed, followed by counterstaining with hematoxylin. The slides were then mounted and observed under an […], with photographs taken. Semi-quantitative analysis was conducted using Image-J software. Based on the cumulative optical density and regional area values of each image, the average optical density was calculated to detect the positive expression of IL-4 or IgE.

The target in series [2] is T1, CYP1A2 (Homo sapiens, UniProt P05177).
T1 construct: The substrate method was used to determine the activity of human liver microsomal CYP450 enzyme; from tissue; host or cells: human liver microsomes
T1 sequence (P05177 1-516): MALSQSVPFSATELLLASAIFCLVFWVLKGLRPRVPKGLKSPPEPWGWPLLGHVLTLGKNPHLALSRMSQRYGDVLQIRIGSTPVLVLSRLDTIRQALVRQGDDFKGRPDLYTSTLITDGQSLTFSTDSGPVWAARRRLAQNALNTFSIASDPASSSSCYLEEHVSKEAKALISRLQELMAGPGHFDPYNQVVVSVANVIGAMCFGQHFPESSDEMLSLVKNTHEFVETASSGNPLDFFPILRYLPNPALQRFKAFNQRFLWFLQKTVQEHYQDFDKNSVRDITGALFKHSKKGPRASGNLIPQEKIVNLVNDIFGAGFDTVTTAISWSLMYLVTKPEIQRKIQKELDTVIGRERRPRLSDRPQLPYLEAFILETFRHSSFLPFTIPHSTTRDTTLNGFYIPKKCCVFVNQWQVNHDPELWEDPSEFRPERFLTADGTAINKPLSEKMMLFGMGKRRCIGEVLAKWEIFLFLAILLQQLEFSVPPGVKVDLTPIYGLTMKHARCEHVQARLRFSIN
The series is described as follows: CYP450 inhibition in human liver microsomes (substrate method, LC-MS/MS). In kind it is in vitro ADME. As to conditions: read-out: CYP inhibition IC50 [μM], 1A2. How it is done: (§1) In addition, the LC-MS/MS method was used to determine the substrate metabolites of 5 major subtypes of human liver microsomal CYP450 enzymes (including CYP1A2, CYP2D6, CYP2C8, CYP2C9, and CYP3A4). The substrate method was used to determine the activity of human liver microsomal CYP450 enzyme. The established incubation system was verified using known inhibitors to investigate the inhibitory effect of the compound on CYP450 enzyme. For the enzyme induction test, a primary cultured human hepatocyte incubation system was used. 3-methylcholanthrene, phenobarbital, and rifampicin were used as positive control inducers of CYP1A2, CYP2B6, and CYP3A4, and phenacetin, bupropion, and testosterone were used as the substrate for CYP1A2, CYP2B6, and CYP3A4. The CYP450 enzyme activity was calculated by measuring the generation rate of 3 specific substrate metabolites in the incubation solution. Meanwhile, the total RNA was extracted from the human hepatocytes after incubation, and the real-time fluorescence quantitative PCR method was used to determine the mRNA expression level of CYP1A2, […], and CYP3A4. The enzyme activity and mRNA transcription level were used as endpoints to investigate the inductive effect of the compound on human liver P450 isoenzymes CYP1A2, […], and CYP3A4. The liver microsomal metabolism parameters in vitro are shown in Table 2B3 taking Compound 8 as an example.
In general terms: Microsomes from liver hold many membrane-bound enzymes, among them those of drug oxidation.

The target in series [3] is T2, CYP2D6 (Homo sapiens, UniProt P10635).
T2 construct: The substrate method was used to determine the activity of human liver microsomal CYP450 enzyme; from tissue; host or cells: human liver microsomes
Described as above. In kind it is in vitro ADME. As to conditions: read-out: CYP inhibition IC50 [μM], 2D6. How it is done: as §1

Series [4] has as its target T3, CYP2C8 (Homo sapiens, UniProt P10632).
T3 construct: The substrate method was used to determine the activity of human liver microsomal CYP450 enzyme; from tissue; host or cells: human liver microsomes
T3 sequence (P10632 1-490): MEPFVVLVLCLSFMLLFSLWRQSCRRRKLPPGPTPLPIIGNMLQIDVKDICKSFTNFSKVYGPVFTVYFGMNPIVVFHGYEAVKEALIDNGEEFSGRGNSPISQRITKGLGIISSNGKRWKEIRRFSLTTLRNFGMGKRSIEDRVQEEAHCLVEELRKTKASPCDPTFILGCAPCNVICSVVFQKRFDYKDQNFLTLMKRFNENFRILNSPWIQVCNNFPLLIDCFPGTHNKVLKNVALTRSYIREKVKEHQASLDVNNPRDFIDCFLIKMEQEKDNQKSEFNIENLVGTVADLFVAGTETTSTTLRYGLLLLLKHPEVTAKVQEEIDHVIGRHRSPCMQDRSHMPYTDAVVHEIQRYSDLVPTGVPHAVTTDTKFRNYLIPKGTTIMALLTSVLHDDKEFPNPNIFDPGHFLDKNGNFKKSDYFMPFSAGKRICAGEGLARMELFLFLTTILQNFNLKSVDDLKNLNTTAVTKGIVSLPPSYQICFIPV
The description is as above. The series is classed as in vitro ADME. As to conditions: read-out: CYP inhibition IC50 [μM], 2C8. On the procedure: as §1

In series [5] the target is T4, CYP3A4 (Homo sapiens, UniProt P08684).
T4 construct: from tissue; host or cells: human liver microsomes
The series is described as above. The series is classed as in vitro ADME. To be noted: read-out: CYP inhibition IC50 [μM], 3A4. How it is done: as §1

Series [6] addresses T5, CYP2C9 (Homo sapiens, UniProt P11712).
T5 construct: The substrate method was used to determine the activity of human liver microsomal CYP450 enzyme; from tissue; host or cells: human liver microsomes
The description is as above. In kind it is in vitro ADME. To be noted: read-out: CYP inhibition IC50 [μM], 2C9. On the procedure: as §1

Setting [7] is: immunohistochemistry, 2% eye drop.

T5 sequence (P11712 whole entry): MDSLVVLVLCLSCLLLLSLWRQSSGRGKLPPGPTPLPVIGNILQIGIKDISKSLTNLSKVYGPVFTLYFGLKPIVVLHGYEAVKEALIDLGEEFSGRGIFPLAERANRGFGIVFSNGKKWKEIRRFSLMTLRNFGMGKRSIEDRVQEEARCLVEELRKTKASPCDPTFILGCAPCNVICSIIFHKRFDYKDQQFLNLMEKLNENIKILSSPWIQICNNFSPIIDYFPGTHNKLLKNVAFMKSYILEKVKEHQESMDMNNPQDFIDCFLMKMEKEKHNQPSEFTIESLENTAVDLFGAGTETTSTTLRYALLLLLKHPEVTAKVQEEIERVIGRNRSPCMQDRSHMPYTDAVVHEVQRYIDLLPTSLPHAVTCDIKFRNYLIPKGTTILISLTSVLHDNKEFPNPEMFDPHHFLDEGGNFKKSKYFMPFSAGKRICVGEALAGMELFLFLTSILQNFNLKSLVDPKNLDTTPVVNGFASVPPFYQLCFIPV
T2 sequence (P10635 whole entry): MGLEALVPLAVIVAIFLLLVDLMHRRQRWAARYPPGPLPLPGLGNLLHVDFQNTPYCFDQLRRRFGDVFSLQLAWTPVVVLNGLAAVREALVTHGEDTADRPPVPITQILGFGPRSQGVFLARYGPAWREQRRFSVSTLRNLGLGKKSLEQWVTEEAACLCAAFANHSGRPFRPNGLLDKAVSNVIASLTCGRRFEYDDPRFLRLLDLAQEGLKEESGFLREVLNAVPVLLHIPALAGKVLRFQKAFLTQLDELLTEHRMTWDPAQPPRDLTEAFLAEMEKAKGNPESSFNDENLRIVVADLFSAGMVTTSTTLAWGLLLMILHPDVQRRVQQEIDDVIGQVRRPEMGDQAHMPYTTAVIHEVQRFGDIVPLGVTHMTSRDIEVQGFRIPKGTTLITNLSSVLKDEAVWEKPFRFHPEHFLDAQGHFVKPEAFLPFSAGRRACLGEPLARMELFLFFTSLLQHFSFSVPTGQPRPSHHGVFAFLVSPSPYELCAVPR
T4 sequence (P08684 whole entry): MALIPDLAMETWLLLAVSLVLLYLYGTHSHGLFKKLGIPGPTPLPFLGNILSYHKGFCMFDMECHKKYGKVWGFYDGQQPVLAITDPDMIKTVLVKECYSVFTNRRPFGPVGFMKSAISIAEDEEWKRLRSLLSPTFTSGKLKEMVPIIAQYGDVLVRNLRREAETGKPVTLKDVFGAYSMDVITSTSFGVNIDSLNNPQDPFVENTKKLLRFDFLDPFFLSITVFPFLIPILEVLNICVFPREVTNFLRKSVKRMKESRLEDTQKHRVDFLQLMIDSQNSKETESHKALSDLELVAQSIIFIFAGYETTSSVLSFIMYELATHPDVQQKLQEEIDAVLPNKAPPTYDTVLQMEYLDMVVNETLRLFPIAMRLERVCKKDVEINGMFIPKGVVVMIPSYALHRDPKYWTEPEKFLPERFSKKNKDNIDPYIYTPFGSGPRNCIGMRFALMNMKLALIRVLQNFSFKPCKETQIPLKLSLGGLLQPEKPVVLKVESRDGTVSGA

In the case of `CCOc1ccc(-c2c(F)cc(NC(=O)N3CCC(C(C)(C)C)CC3)cc2-c2nn[nH]n2)cn1` [Compound 8, 4-(tert-butyl)-N-(4-(6-ethoxypyrid-3-yl)-3-fluoro-5-(2H-tetrazol-5-yl)phenyl)piperidine-1-carboxamide], the “inflammatory cell infiltration of conjunctival tissue (HE staining; in words)” value is “inflammatory cell infiltration was still visible” in series [1] (0.5% eye drop) and “an improvement in inflammatory cell infiltration” in series [1] (2% eye drop). In addition, the results for the “mast cell degranulation (toluidine blue staining; in words)” value in series [1] (0.5% eye drop) and in series [1] (2% eye drop) were “a few samples showed manifest mast cell degranulation” and “no mast cell degranulation was observed”, respectively. The Clinical symptom score in series [1] (0.5% eye drop) is listed as 3.67 ± 0.36; in series [1] (2% eye drop) it was 1.75 ± 0.22^♦. For the same molecule, the “expression of IgE in ocular tissue (average optical density)” value in series [1] (immunohistochemistry, 0.5% eye drop) is 0.72±0.12; in series [1] (setting [7]) it was 0.54±0.06. The “expression of IL-4 in ocular tissue (average optical density)” value in series [1] (setting [7]) is 0.24±0.06. The IC50 in series [2], in series [3], in series [4], in series [5] and in series [6] was 50 µM throughout.

The record behind these values is patent US20250353835A1, “N-TETRAZOLYL ARYL UREA-BASED DERIVATIVES, PREPARATION METHOD THEREFOR, AND USE THEREOF” (Hangzhou Yirui Pharmaceutical Technology Co., Ltd, priority 2022, published 2025).
